# From publication PMC8772704, “Quantification of Fosfomycin in Combination with Nine Antibiotics in Human Plasma and Cation-Adjusted Mueller-Hinton II Broth via LCMS” (Antibiotics, 2022)
# Legend:
# [1] = Long-term storage stability of antibiotics in combination with fosfomycin spiked in plasma/CAMHB (−30 °C, −80 °C); assay type: physicochemical; conditions: for Stability verdict (within ±15% of nominal): CAMHB samples stored at −30 °C, 4 weeks; for Mean accuracy (%), Table S15 / Mean accuracy (%), Table S17 / Mean accuracy (%), Table S16 / Mean accuracy (%), Table S18: CAMHB; for Mean accuracy (%), Table S15 / Mean accuracy (%), Table S17 / Mean accuracy (%), Table S16 / Mean accuracy (%), Table S18 / Mean accuracy (%), Table S11 / Mean accuracy (%), Table S13 / Mean accuracy (%), Table S12 / Mean accuracy (%), Table S14: combination with fosfomycin; for Mean accuracy (%), Table S15 / Mean accuracy (%), Table S11: 2 weeks at -30 °C; for Mean accuracy (%), Table S17 / Mean accuracy (%), Table S13: 2 weeks at -80 °C; for Mean accuracy (%), Table S16 / Mean accuracy (%), Table S12: 4 weeks at -30 °C; for Mean accuracy (%), Table S18 / Mean accuracy (%), Table S14: 4 weeks at -80 °C
# Method: (§1) The stability of fosfomycin in combination with other antibiotics in plasma/CAMHB was evaluated under various operational conditions. Spiked plasma/CAMHB samples were evaluated at 7 h and 15 h in the autosampler at 4 °C. Long-term stability was evaluated up to 4 weeks of antibiotic-spiked plasma/CAMHB samples at LQC, MQC, and HQC concentrations stored at −30 °C and −80 °C.
# [2] = 32-day stability of stock solutions stored at −80 °C; assay type: physicochemical; conditions: stock solution stored at -80 °C; peak area Day 32 vs Day 1
# Method: Stability of stock solutions
# All stock solutions of antibiotics and their corresponding stable-isotope variants were measured prior to cold storage at -80 °C and tested at 32 days later.
# Stability was determined by comparing the peak area of each drug between its Day 1 and Day 32 measurement. Acceptable criteria for stability was met if the […]
# [3] = Autosampler stability at 4 °C of extracted antibiotic-spiked plasma/CAMHB samples; conditions: for Mean accuracy (%), Table S8 / Mean accuracy (%), Table S10: CAMHB extracted samples; for Mean accuracy (%), Table S8 / Mean accuracy (%), Table S7: 7 h autosampler 4 °C; for Mean accuracy (%), Table S10 / Mean accuracy (%), Table S9: 15 h autosampler 4 °C; for Mean accuracy (%), Table S7 / Mean accuracy (%), Table S9: plasma extracted samples
# Method: as §1
# [4] = HQC: nominal mg/L CAZ 150, FEP 200, PIP 250, ATM 300, MEM 200, DOR 175, LVX 30, CEFT 250, TZB 87.5, TGC 20, AVI 30, FOF 1000
# [5] = LQC: nominal 1 mg/L (levofloxacin, avibactam 0.5; fosfomycin 10)
# [6] = MQC: nominal mg/L CAZ 75, FEP 100, PIP 150, ATM 150, MEM 100, DOR 87.5, LVX 15, CEFT 125, TZB 43.75, TGC 10, AVI 15, FOF 500
Stability verdict (within ±15% of nominal) [1],"Mean accuracy (%), Table S15 ([1]; HQC (nominal as E15)) [%]","Mean accuracy (%), Table S15 ([1]; LQC (nominal as E13)) [%]","Mean accuracy (%), Table S15 ([1]; MQC (nominal as E14)) [%]","Mean accuracy (%), Table S17 ([1]; HQC (nominal as E15)) [%]","Mean accuracy (%), Table S17 ([1]; LQC (nominal as E13)) [%]","Mean accuracy (%), Table S17 ([1]; MQC (nominal as E14)) [%]","Mean accuracy (%), Table S16 ([1]; HQC (nominal as E15)) [%]","Mean accuracy (%), Table S16 ([1]; LQC (nominal as E13)) [%]","Mean accuracy (%), Table S16 ([1]; MQC (nominal as E14)) [%]","Mean accuracy (%), Table S18 ([1]; HQC (nominal as E15)) [%]","Mean accuracy (%), Table S18 ([1]; LQC (nominal as E13)) [%]","Mean accuracy (%), Table S18 ([1]; MQC (nominal as E14)) [%]","Mean accuracy (%), Table S11 ([1]; plasma, HQC (nominal as E15)) [%]","Mean accuracy (%), Table S11 ([1]; plasma, LQC (nominal as E13)) [%]","Mean accuracy (%), Table S11 ([1]; plasma, MQC (nominal as E14)) [%]","Mean accuracy (%), Table S13 ([1]; plasma, HQC (nominal as E15)) [%]","Mean accuracy (%), Table S13 ([1]; plasma, LQC (nominal as E13)) [%]","Mean accuracy (%), Table S13 ([1]; plasma, MQC (nominal as E14)) [%]","Mean accuracy (%), Table S12 ([1]; plasma, LQC (nominal as E13)) [%]",SMILES,further results
instability,90.4,93.7,89.1,95.3,101.2,95.4,80.6,82.3,80.6,98.6,103.0,98.2,93.9,100.6,99.4,95.2,105.1,100.4,100.2,"NC(=O)[C@@H]1CC[C@@H]2CN1C(=O)N2OS(=O)(=O)O [Avibactam, avibactam]","Mean accuracy (%), Table S12 ([1]; plasma, HQC (nominal as E15)): 87.3%; Mean accuracy (%), Table S12 ([1]; plasma, MQC (nominal as E14)): 92.6%; Mean accuracy (%), Table S14 ([1]; plasma, HQC (nominal as E15)): 92.9%; Mean accuracy (%), Table S14 ([1]; plasma, LQC (nominal as E13)): 101.0%; Mean accuracy (%), Table S14 ([1]; plasma, MQC (nominal as E14)): 94.5%; 32 Day Stability (%) [2]: 102.63%; Mean accuracy (%), Table S8 ([3]; HQC (nominal as E15)): 106.4%; Mean accuracy (%), Table S8 ([3]; LQC (nominal as E13)): 108.8%; Mean accuracy (%), Table S8 ([3]; MQC (nominal as E14)): 104.2%; Mean accuracy (%), Table S10 ([3]; HQC (nominal as E15)): 107.5%; Mean accuracy (%), Table S10 ([3]; LQC (nominal as E13)): 108.3%; Mean accuracy (%), Table S10 ([3]; MQC (nominal as E14)): 104.9%; Mean accuracy (%), Table S7 [3, 4]: 96.2%; Mean accuracy (%), Table S7 [3, 5]: 105.4%; Mean accuracy (%), Table S7 [3, 6]: 100.7%; Mean accuracy (%), Table S9 ([3]; HQC (nominal as E15)): 95.6%; Mean accuracy (%), Table S9 ([3]; LQC (nominal as E13)): 103.4%; Mean accuracy (%), Table S9 ([3]; MQC (nominal as E14)): 99.3%"
instability,89.0,106.0,89.5,89.6,111.6,92.6,69.6,90.6,67.5,87.6,109.4,90.6,88.5,112.6,92.7,88.6,109.5,93.0,106.0,"CCN1CCN(C(=O)N[C@@H](C(=O)N[C@@H]2C(=O)N3[C@@H]2SC(C)(C)[C@@H]3C(=O)O)c2ccccc2)C(=O)C1=O [Piperacillin, piperacillin]","Stability data ([1]; plasma, 2-week and 4-week intervals): 86–88%; Mean accuracy (%), Table S14 ([1]; plasma, LQC (nominal as E13)): 111.6%; 32 Day Stability (%) [2]: 100.48%; Mean accuracy (%), Table S8 ([3]; HQC (nominal as E15)): 89.6%; Mean accuracy (%), Table S8 ([3]; LQC (nominal as E13)): 113.7%; Mean accuracy (%), Table S8 ([3]; MQC (nominal as E14)): 86.7%; Mean accuracy (%), Table S10 ([3]; HQC (nominal as E15)): 90.6%; Mean accuracy (%), Table S10 ([3]; LQC (nominal as E13)): 112.7%; Mean accuracy (%), Table S10 ([3]; MQC (nominal as E14)): 87.6%; Mean accuracy (%), Table S7 [3, 4]: 87.5%; Mean accuracy (%), Table S7 [3, 5]: 109.5%; Mean accuracy (%), Table S7 [3, 6]: 84.0%; Mean accuracy (%), Table S9 ([3]; HQC (nominal as E15)): 89.6%; Mean accuracy (%), Table S9 ([3]; LQC (nominal as E13)): 109.9%; Mean accuracy (%), Table S9 ([3]; MQC (nominal as E14)): 86.8%"
